{
  "source": "paper PMC5218480",
  "about": "(PLoS ONE, 2017)",
  "system": "MV-4-11 cells",
  "experiment": "Gene expression microarray analysis (Affymetrix PrimeView) and GSEA",
  "type": "cell-based, human",
  "set-up": "RFU PODN (11730768_x_at) / Fold change /veh PODN (11730768_x_at) / RFU LINC00158 (11744669_a_at) / Fold change /veh LINC00158 (11744669_a_at) / RFU DUSP10 (11751237_a_at) / Fold change /veh DUSP10 (11751237_a_at) / RFU ID3 (11757404_x_at) / Fold change /veh ID3 (11757404_x_at) / RFU PLEKHG5 (11737974_s_at) / Fold change /veh PLEKHG5 (11737974_s_at) / RFU LRRC4B (11730491_at) / Fold change /veh LRRC4B (11730491_at) / RFU GIMAP4 (11747438_a_at) / Fold change /veh GIMAP4 (11747438_a_at) / RFU KRT8 (11758183_x_at) / Fold change /veh KRT8 (11758183_x_at) / RFU CNN1 (11734310_a_at) / Fold change /veh CNN1 (11734310_a_at) / RFU VPS37D (11726825_at) / Fold change /veh VPS37D (11726825_at) / RFU C10orf10 (11716522_x_at) / Fold change /veh C10orf10 (11716522_x_at) / RFU KIR2DL2 /// KIR2DL4 /// KIR2DL5A /// KIR2DL5B /// KIR2DS1 /// KIR2DS2 /// KIR2DS3 /// KIR2DS4 /// KIR3DL3 /// KIR3DL3 /// KIR3DS1 (11738374_at) / Fold change /veh KIR2DL2 /// KIR2DL4 /// KIR2DL5A /// KIR2DL5B /// KIR2DS1 /// KIR2DS2 /// KIR2DS3 /// KIR2DS4 /// KIR3DL3 /// KIR3DL3 /// KIR3DS1 (11738374_at) / RFU C1QL1 (11718748_at) / Fold change /veh C1QL1 (11718748_at) / RFU TMPRSS4 (11747572_a_at) / Fold change /veh TMPRSS4 (11747572_a_at) / RFU HAMP (11756126_x_at) / Fold change /veh HAMP (11756126_x_at) / RFU RNFT2 (11725882_a_at) / Fold change /veh RNFT2 (11725882_a_at) / RFU NR4A2 (11747474_a_at) / Fold change /veh NR4A2 (11747474_a_at) / RFU ABCC12 (11746883_a_at) / Fold change /veh ABCC12 (11746883_a_at) / RFU TMEM136 (11760407_x_at) / Fold change /veh TMEM136 (11760407_x_at) / RFU CLDN22 /// WWC2 (11732394_at) / Fold change /veh CLDN22 /// WWC2 (11732394_at) / RFU HLA-DPB1 (11760878_x_at) / Fold change /veh HLA-DPB1 (11760878_x_at) / RFU SPINT1 (11716480_a_at) / Fold change /veh SPINT1 (11716480_a_at) / RFU GAP43 (11754022_s_at) / Fold change /veh GAP43 (11754022_s_at) / RFU A4GNT (11735810_at) / Fold change /veh A4GNT (11735810_at) / RFU PRB3 (11715151_x_at) / Fold change /veh PRB3 (11715151_x_at) / RFU TUBB4B (11761932_at) / Fold change /veh TUBB4B (11761932_at) / RFU CAPN14 (11732068_a_at) / Fold change /veh CAPN14 (11732068_a_at) / RFU TMCC2 (11721928_a_at) / Fold change /veh TMCC2 (11721928_a_at) / RFU IRGQ (11745062_a_at) / Fold change /veh IRGQ (11745062_a_at) / RFU FAM174B (11720279_a_at) / Fold change /veh FAM174B (11720279_a_at) / RFU TMPRSS4 (11748680_a_at) / Fold change /veh TMPRSS4 (11748680_a_at) / RFU FAM212B (11763350_a_at) / Fold change /veh FAM212B (11763350_a_at) / RFU PLEKHG5 (11743358_a_at) / Fold change /veh PLEKHG5 (11743358_a_at) / RFU ZSCAN30 (11745921_a_at) / Fold change /veh ZSCAN30 (11745921_a_at) / RFU CMKLR1 (11741424_a_at) / Fold change /veh CMKLR1 (11741424_a_at) / RFU LOC101060620 /// MAPK8IP1 (11723275_at) / Fold change /veh LOC101060620 /// MAPK8IP1 (11723275_at) / RFU SPTSSB (11747773_x_at) / Fold change /veh SPTSSB (11747773_x_at) / RFU PRSS12 (11739890_at) / Fold change /veh PRSS12 (11739890_at) / RFU BIN1 (11741810_x_at) / Fold change /veh BIN1 (11741810_x_at) / RFU WNT11 (11732464_a_at) / Fold change /veh WNT11 (11732464_a_at) / RFU C10orf10 (11716521_a_at) / Fold change /veh C10orf10 (11716521_a_at) / RFU C5orf56 (11738089_at) / Fold change /veh C5orf56 (11738089_at) / RFU CYB561 (11721691_x_at) / Fold change /veh CYB561 (11721691_x_at) / RFU ANKRD19P (11752326_a_at) / Fold change /veh ANKRD19P (11752326_a_at) / RFU OR2T12 /// OR2T33 /// OR2T8 (11738714_s_at) / Fold change /veh OR2T12 /// OR2T33 /// OR2T8 (11738714_s_at) / RFU VCAN (11748164_a_at) / Fold change /veh VCAN (11748164_a_at) / RFU JSRP1 (11732532_at) / Fold change /veh JSRP1 (11732532_at) / RFU KRTAP10-11 (11738290_x_at) / Fold change /veh KRTAP10-11 (11738290_x_at) / RFU MYO3A (11730013_a_at) / Fold change /veh MYO3A (11730013_a_at) / RFU EBF3 (11725865_a_at) / Fold change /veh EBF3 (11725865_a_at) / RFU CAMK2N1 (11719241_x_at) / Fold change /veh CAMK2N1 (11719241_x_at) / RFU C5orf56 (11738088_a_at) / Fold change /veh C5orf56 (11738088_a_at) / RFU OLFML3 (11715873_a_at) / Fold change /veh OLFML3 (11715873_a_at) / RFU LOC100653217 /// NTM (11731650_a_at) / Fold change /veh LOC100653217 /// NTM (11731650_a_at) / RFU MAPK11 (11762145_a_at) / Fold change /veh MAPK11 (11762145_a_at) / RFU FIZ1 (11724087_x_at) / Fold change /veh FIZ1 (11724087_x_at) / RFU OASL (11726364_x_at) / Fold change /veh OASL (11726364_x_at) / RFU SOX15 (11748057_x_at) / Fold change /veh SOX15 (11748057_x_at) / RFU CD79A (11719716_a_at) / Fold change /veh CD79A (11719716_a_at) / RFU HIST1H1D (11736915_at) / Fold change /veh HIST1H1D (11736915_at) / RFU CASKIN2 (11723855_a_at) / Fold change /veh CASKIN2 (11723855_a_at) / RFU LOC730098 (11760151_x_at) / Fold change /veh LOC730098 (11760151_x_at) / RFU OR4N2 (11742367_at) / Fold change /veh OR4N2 (11742367_at) / RFU PRRT2 (11749266_a_at) / Fold change /veh PRRT2 (11749266_a_at) / RFU SNX32 (11753110_a_at) / Fold change /veh SNX32 (11753110_a_at) / RFU CDHR5 (11726645_a_at) / Fold change /veh CDHR5 (11726645_a_at) / RFU RCAN1 (11760418_a_at) / Fold change /veh RCAN1 (11760418_a_at) / RFU FAM167A (11723789_a_at) / Fold change /veh FAM167A (11723789_a_at) / RFU FAM26E (11764081_at) / Fold change /veh FAM26E (11764081_at) / RFU ISYNA1 (11749810_s_at) / Fold change /veh ISYNA1 (11749810_s_at) / RFU ACY1 (11761880_at) / Fold change /veh ACY1 (11761880_at) / RFU 11764098_at / Fold change /veh 11764098_at / RFU SAMD14 (11745864_x_at) / Fold change /veh SAMD14 (11745864_x_at) / RFU NPB (11741838_a_at) / Fold change /veh NPB (11741838_a_at) / RFU TMPRSS6 (11731388_a_at) / Fold change /veh TMPRSS6 (11731388_a_at) / RFU KRTAP10-2 (11738614_at) / Fold change /veh KRTAP10-2 (11738614_at) / RFU ARHGAP8 /// PRR5-ARHGAP8 (11727945_x_at) / Fold change /veh ARHGAP8 /// PRR5-ARHGAP8 (11727945_x_at) / RFU KRTAP5-7 /// NADSYN1 (11734609_at) / Fold change /veh KRTAP5-7 /// NADSYN1 (11734609_at) / RFU RASL12 (11751679_a_at) / Fold change /veh RASL12 (11751679_a_at) / RFU CDKN2B (11736163_a_at) / Fold change /veh CDKN2B (11736163_a_at) / RFU PRF1 (11729649_at) / Fold change /veh PRF1 (11729649_at) / RFU, ZNF638 /// ZNF638-IT1 / Fold change vs veh, ZNF638 /// ZNF638-IT1 / RFU, PANK3 / Fold change vs veh, PANK3 / RFU, SH3YL1 / Fold change vs veh, SH3YL1 / RFU, ZEB2 / Fold change vs veh, ZEB2 / RFU, NRIP1 / Fold change vs veh, NRIP1 / RFU, PTTG1IP / Fold change vs veh, PTTG1IP / RFU, CAPN2 / Fold change vs veh, CAPN2 / RFU, MED14 / Fold change vs veh, MED14 / RFU, SNORA58 / Fold change vs veh, SNORA58 / RFU, C1orf63 / Fold change vs veh, C1orf63 / RFU, LRRFIP1 / Fold change vs veh, LRRFIP1 / RFU, NDUFAF7 / Fold change vs veh, NDUFAF7 / RFU, SLC12A2 / Fold change vs veh, SLC12A2 / RFU, IBTK / Fold change vs veh, IBTK / RFU, ESF1 / Fold change vs veh, ESF1 / Fold change vs veh, TMEM50B / RFU, TAOK1 / Fold change vs veh, TAOK1 / RFU, ACBD3 / Fold change vs veh, ACBD3 / RFU, TMA16 / Fold change vs veh, TMA16 / RFU, RWDD3 / Fold change vs veh, RWDD3 / RFU, BCAT1 / Fold change vs veh, BCAT1 / RFU, EDEM3 / Fold change vs veh, EDEM3 / RFU, TMEM33 / Fold change vs veh, TMEM33 / RFU, WDR75 / Fold change vs veh, WDR75 / RFU, AHCTF1 / Fold change vs veh, AHCTF1 / RFU, TFRC / Fold change vs veh, TFRC / RFU, ZDHHC17 / Fold change vs veh, ZDHHC17 / RFU, NOM1 / Fold change vs veh, NOM1 / RFU, ARL8B / Fold change vs veh, ARL8B / RFU, ZBTB11 / Fold change vs veh, ZBTB11 / RFU, TAMM41 / Fold change vs veh, TAMM41 / RFU, KIAA1704 /// LOC100996395 / Fold change vs veh, KIAA1704 /// LOC100996395 / RFU, ING1 / Fold change vs veh, ING1 / RFU, TRMT61B / Fold change vs veh, TRMT61B / RFU, FUBP3 / Fold change vs veh, FUBP3 / RFU, TP53 / Fold change vs veh, TP53 / RFU, TNKS2 / Fold change vs veh, TNKS2 / RFU, ZFP14 / Fold change vs veh, ZFP14 / RFU, ACTR2 / Fold change vs veh, ACTR2 / RFU, PPP3R1 / Fold change vs veh, PPP3R1 / RFU, PIK3R1 / Fold change vs veh, PIK3R1 / RFU, HNRNPA1 / Fold change vs veh, HNRNPA1 / RFU, RNF170 / Fold change vs veh, RNF170 / RFU, ZNF28 / Fold change vs veh, ZNF28 / RFU, RNGTT / Fold change vs veh, RNGTT / RFU, OGT / Fold change vs veh, OGT / RFU, BRD1 / Fold change vs veh, BRD1 / RFU, MARS / Fold change vs veh, MARS / RFU, ZNF655 / Fold change vs veh, ZNF655 / RFU, FAHD1 / Fold change vs veh, FAHD1 / RFU, BDP1 / Fold change vs veh, BDP1 / RFU, LRRCC1 / Fold change vs veh, LRRCC1 / RFU, ARID1A / Fold change vs veh, ARID1A / RFU, ZNF146 / Fold change vs veh, ZNF146 / RFU, ZNF330 / Fold change vs veh, ZNF330 / RFU, GPN3 / Fold change vs veh, GPN3 / RFU, C9orf123 / Fold change vs veh, C9orf123 / RFU, N4BP2L2 / Fold change vs veh, N4BP2L2 / RFU, ARFIP1 / Fold change vs veh, ARFIP1 / RFU, FAM179B / Fold change vs veh, FAM179B / RFU, BCL10 / Fold change vs veh, BCL10 / RFU, UHRF1BP1L / Fold change vs veh, UHRF1BP1L / RFU, BET1 / Fold change vs veh, BET1 / RFU, CNOT2 / Fold change vs veh, CNOT2 / RFU, ZNF268 / Fold change vs veh, ZNF268 / Fold change vs veh, ZNF507 / RFU, DGCR2 / Fold change vs veh, DGCR2 / RFU, WDSUB1 / Fold change vs veh, WDSUB1 / Fold change vs veh, HSP90B1 /// MIR3652 / RFU, ADSS / Fold change vs veh, ADSS / RFU, GK / Fold change vs veh, GK / RFU, ZNF148 / Fold change vs veh, ZNF148 / RFU, TAF9 / Fold change vs veh, TAF9 / RFU, SLC1A5 / Fold change vs veh, SLC1A5 / RFU, SLMO2 / Fold change vs veh, SLMO2 / RFU, ABCC4 / Fold change vs veh, ABCC4 / RFU, LOC101060439 /// RAP1B / Fold change vs veh, LOC101060439 /// RAP1B / RFU, RFX7 / Fold change vs veh, RFX7 / RFU, GTPBP10 / Fold change vs veh, GTPBP10 / RFU, CNEP1R1 / Fold change vs veh, CNEP1R1 / RFU, BIVM-ERCC5 /// ERCC5 / Fold change vs veh, BIVM-ERCC5 /// ERCC5 / RFU, ILF3 / Fold change vs veh, ILF3 / RFU 11762660_at / Fold change /veh 11762660_at / RFU VCAN (11757783_s_at) / Fold change /veh VCAN (11757783_s_at) / RFU DDX43 (11728927_at) / Fold change /veh DDX43 (11728927_at) / RFU KRT8 (11758188_x_at) / Fold change /veh KRT8 (11758188_x_at) / RFU NKD1 (11759106_at) / Fold change /veh NKD1 (11759106_at) / RFU SRD5A1 (11742802_a_at) / Fold change /veh SRD5A1 (11742802_a_at) / RFU TPSAB1 /// TPSB2 (11721975_s_at) / Fold change /veh TPSAB1 /// TPSB2 (11721975_s_at) / RFU GSTM3 (11746129_a_at) / Fold change /veh GSTM3 (11746129_a_at) / RFU IL23R (11737362_x_at) / Fold change /veh IL23R (11737362_x_at) / RFU TMEM51 (11727254_a_at) / Fold change /veh TMEM51 (11727254_a_at) / RFU PIWIL2 (11732686_x_at) / Fold change /veh PIWIL2 (11732686_x_at) / RFU ORM1 (11744905_x_at) / Fold change /veh ORM1 (11744905_x_at) / RFU CCDC152 (11743942_at) / Fold change /veh CCDC152 (11743942_at) / RFU ECM1 (11717891_a_at) / Fold change /veh ECM1 (11717891_a_at) / RFU IL23R (11748794_a_at) / Fold change /veh IL23R (11748794_a_at) / RFU TNFAIP8L3 (11732012_x_at) / Fold change /veh TNFAIP8L3 (11732012_x_at) / RFU MBOAT4 (11741988_at) / Fold change /veh MBOAT4 (11741988_at) / RFU 11764193_at / Fold change /veh 11764193_at / RFU TMEM53 (11763286_at) / Fold change /veh TMEM53 (11763286_at) / RFU MAGEB2 (11727129_at) / Fold change /veh MAGEB2 (11727129_at) / RFU TMEM200A (11744735_a_at) / Fold change /veh TMEM200A (11744735_a_at) / RFU CCDC152 (11751479_a_at) / Fold change /veh CCDC152 (11751479_a_at) / RFU FAM211A (11726209_a_at) / Fold change /veh FAM211A (11726209_a_at) / RFU RGS16 (11746705_a_at) / Fold change /veh RGS16 (11746705_a_at) / RFU VCAN (11755009_s_at) / Fold change /veh VCAN (11755009_s_at) / RFU RHOB (11743442_s_at) / Fold change /veh RHOB (11743442_s_at) / RFU RGS16 (11720943_a_at) / Fold change /veh RGS16 (11720943_a_at) / RFU RGS16 (11720944_at) / Fold change /veh RGS16 (11720944_at) / RFU, VPS4B / Fold change vs veh, VPS4B / RFU, CREB1 / Fold change vs veh, CREB1 / RFU, DNAJC13 / Fold change vs veh, DNAJC13 / RFU, GNAQ / Fold change vs veh, GNAQ / RFU, CDK5R1 / Fold change vs veh, CDK5R1 / RFU, ZRANB3 / Fold change vs veh, ZRANB3 / RFU, CUL4A / Fold change vs veh, CUL4A / RFU, CCNY / Fold change vs veh, CCNY / RFU, UFL1 / Fold change vs veh, UFL1 / RFU, COG3 / Fold change vs veh, COG3 / RFU, DIAPH2 / Fold change vs veh, DIAPH2 / RFU, SKA2 / Fold change vs veh, SKA2 / RFU, AFF3 / Fold change vs veh, AFF3 / RFU, LMF1 / Fold change vs veh, LMF1 / RFU, IPO11 / Fold change vs veh, IPO11 / RFU, DFFB / Fold change vs veh, DFFB / RFU, FOXP1 / Fold change vs veh, FOXP1 / RFU, CARD8 / Fold change vs veh, CARD8 / RFU, STRN3 / Fold change vs veh, STRN3 / RFU, ADK / Fold change vs veh, ADK / RFU, RASSF2 / Fold change vs veh, RASSF2 / RFU, WIPF1 / Fold change vs veh, WIPF1 / RFU, LARP1B / Fold change vs veh, LARP1B / RFU, RASA1 / Fold change vs veh, RASA1 / RFU, RB1 / Fold change vs veh, RB1 / RFU, PPFIA1 / Fold change vs veh, PPFIA1 / RFU, MAT2A / Fold change vs veh, MAT2A / RFU, CCT5 / Fold change vs veh, CCT5 / RFU, WDR92 / Fold change vs veh, WDR92 / RFU, CUX1 / Fold change vs veh, CUX1 / RFU, TTC7A / Fold change vs veh, TTC7A / RFU, TMEM135 / Fold change vs veh, TMEM135 / RFU, DEPTOR / Fold change vs veh, DEPTOR / RFU, CPM / Fold change vs veh, CPM / RFU, DNAJB6 / Fold change vs veh, DNAJB6 / RFU, CACNA2D3 / Fold change vs veh, CACNA2D3 / RFU, DTX4 / Fold change vs veh, DTX4 / RFU, TFCP2 / Fold change vs veh, TFCP2 / RFU, GMCL1 /// GMCL1P1 / Fold change vs veh, GMCL1 /// GMCL1P1 / RFU, AEBP2 / Fold change vs veh, AEBP2 / RFU, SNHG1 /// SNORD22 /// SNORD25 /// SNORD26 /// SNORD27 /// SNORD28 /// SNORD29 /// SNORD31 / Fold change vs veh, SNHG1 /// SNORD22 /// SNORD25 /// SNORD26 /// SNORD27 /// SNORD28 /// SNORD29 /// SNORD31 / Fold change (Aza/veh), C12orf56 (ProbeSet 11735607_a_at) / Fold change (ACY-1035/veh), C12orf56 (ProbeSet 11735607_a_at) / Fold change (Aza/veh), FGFR1OP (ProbeSet 11751329_s_at) / Fold change (ACY-1035/veh), FGFR1OP (ProbeSet 11751329_s_at) / Fold change (Aza/veh), VPS36 (ProbeSet 11739960_a_at) / Fold change (ACY-1035/veh), VPS36 (ProbeSet 11739960_a_at) / RFU SYPL1 (11715823_x_at) / Fold change /veh SYPL1 (11715823_x_at) / RFU IGFBP7 (11715501_s_at) / Fold change /veh IGFBP7 (11715501_s_at) / RFU REEP3 (11722064_at) / Fold change /veh REEP3 (11722064_at) / RFU IGLL1 (11728026_x_at) / Fold change /veh IGLL1 (11728026_x_at): dose or concentration left out as unconfirmed",
  "details": "ProbeSet 11718701_a_at; LIST B",
  "data": [
    {"smiles": "Nc1ccc(-c2cccs2)cc1NC(=O)c1ccc2c(c1)cc(C1CC1)n2CCN1CCOCC1", "note": "[ACY-1035]", "values": [
      {"measurement": "RFU, ARFIP1", "result": 56.28, "unit": "RFU"}
    ]}
  ]
}
